Reference: patent US12702715B2, “Targeted RNA degradation allows precision repurposing of protein-targeted small molecule medicines to RNA” (University of Florida Research Foundation, Incorporated, priority 2020, dated 2026)
“Also recorded” adds a separate entry of the source.

Key:
[1] = molecular target: pre-miR-21's A-bulge (Dicer processing site in pre-miR-21); experiment: Fluorescent binding affinity measurement, A-bulge RNA; design: species or system human
Experimental: Fluorescent Binding Affinity Measurements. Binding assays were completed as previously described^5. Briefly, the RNA of interest was folded as described in the “Solution-based Dye Displacement Assay” section, including the addition of BSA. Then, 1 was added to the RNA solution to a final concentration of 0.5 μM. The solution was serial diluted with 1× AB2 containing 0.5 μM of 1. The solutions were incubated at room temperature in the dark for 30 min. The solutions were then transferred to a black 384-well plate. Fluorescence intensity was measured using a Tecan plate reader (Gain: 100, Integration time: 40 μs) with excitation wavelength of and emission wavelength of 355 nm and 535 nm, respectively. The change in fluorescence was normalized to samples lacking RNA. Binding affinity was calculated by using Equation 2, as previously described^5. I=I0+0.5Δε{([FL]0+[RNA]0+Kd)−(([FL]0+[RNA]0+Kd)^2−4[FL]0[RNA]0)^0.5} (2) where I and I0 are the measured fluorescence intensity of compound with or without RNA, respectively, Δε is the difference between the fluorescence intensity with infinite concentration of RNA or without RNA, [FL]0 and [RNA]0 are the concentrations of small molecule and RNA, respectively, and Kd is the dissociation constant.

pre-miR-21 mutant = experiment: In vitro Dicer processing of pre-miR-21 mutant; type: biochemical
Experimental: In vitro Dicer Processing. The pre-miR-21 WT RNA or pre-miR-21 base pair mutant were 5′-end labeled with T4 polynucleotide kinase and [γ-^32P] ATP as described previously^7. The RNA was folded in 1× Reaction Buffer (Genlantis) by heating at 55° C. for 5 min and cooling slowly to room temperature on the benchtop. The mixture was then supplemented with 2.5 mM MgCl2 and 1 mM ATP. The Dicer processing reaction was performed as described previously^6. The cleavage products were resolved on a 15% polyacrylamide denaturing gel and imaged using a Molecular Dynamics Typhoon phosphorimager and quantified with QuantityOne software from Bio-Rad.

[2] = tested on: 3×2 RNA internal loop library (3×2 ILL); experiment: AbsorbArray 2DCS selection with Inforna fitness analysis; type: binding, human
Experimental: Construction of AbsorbArray Small Molecule Microarrays. Microarrays were constructed as previously reported^4. Briefly, a 1% agarose solution was poured onto a glass slide and dried on the benchtop. A 200 nL aliquot of 68 hit compounds (10 mM in DMSO) was pinned onto the array from a 384-well plate using Biomek NXP Laboratory Automation Workstation. Slides were then dried overnight to obtain a thin, invisible agarose layer. Slides were washed three times with 1×PBST^5 and then three times with nanopure water. Slides were dried completely in the air before RNA selection, completed by Two-Dimensional Combinatorial Screening (2DCS).
RNA Selection and Screening by 2DCS. The 3×2 RNA ILL was 5′-end ^32P-labeled as previously described^7 and 2DCS selections were completed as previously described 4. All oligonucleotides were folded as described in the “Solution-based Dye Displacement Assay” section. Small molecule microarrays were pre-equilibrated by 3 mL 1× AB2 for 5 min. After removing the pre-equilibration buffer, 5′-end labeled folded 3×2 RNA ILL (~50,000 cpm) was added in 3 mL 1× AB2 containing 1 mM MgCl2 in the presence of competitor oligonucleotides (100 μM each). The oligonucleotide solution was evenly distributed across the microarray surface with a custom-cut piece of Parafilnm. After incubating for 30 min at room temperature, the Parafilm was removed, and the slide was washed gently by submersion in 1× AB2 for 30 s. This washing step was repeated three additional times, and the array was dried on the benchtop for 1 h. […] To harvest and collect the bound RNAs from the ILL, 1 μL of nanopure water was added to each spot. After 30 s, the water drop was absorbed into agarose gel, hydrating it such that it could be excised with a toothpick. The RNAs were eluted from the agarose by simple incubation with water, and then treated with RNase-free DNase I. A unique barcode for each small molecule was installed by reverse transcription (RT). Barcoded RNAs were amplified by PCR, purified, and identified by next-generation sequencing (NGS) using an Ion Proton deep sequencer using PI chips (60-80 million reads) as previously described^2.

[3] = tested on: all miRNAs expressed in MDA-MB-231 cells; experiment: Global miRNA profiling in MDA-MB-231 cells; type: cell-based, human
Experimental: RNA Isolation and Quantitative Real-Time PCR (RT-qPCR). After treatment, total RNA was extracted and purified by using the Zymo Quick-RNA mini prep kit per the manufacturer's protocol. Reverse Transcription (RT) for mature miRNAs as well as pri- and pre-miR-21 was completed on 200 ng of RNA by using a miScript 11 RT kit (QIAGEN) according to manufacturer's protocol. RT of mRNAs was performed by using QScript kit (Quanta Bio). An Applied Biosystems QS5 384-well PCR system was used to complete qPCR experiments using Power Sybr Green Mater Mix (Life Technologies) as described previously^6.

RNase L = RNase L (Homo sapiens, UniProt Q05823); experiment: In vitro RNase L oligomerization; type: biochemical
Experimental: In Vitro RNase L Oligomerization. To a solution of RNase L (3 μM) in 1× RNase L Buffer (add components) was added MgCl2, fresh β-mercaptoethanol, and ATP to final concentrations of 10 mM, 7 mM, and 50 μM respectively. The oligomerization of RNase L induced by small molecules was assessed as previously reported^6. The monomeric and oligomeric RNase L protein was resolved by Western blot and detected using an RNase L primary antibody (1:6000 dilution; Cell Signaling Technology, D4B4J). The blot was incubated with the antibody in 1×TBST (Tris-buffered saline supplemented with 0.1% (v/v) Tween-20) and 5% (w/v) nonfat dry milk at 4° C. overnight. After washing, the blot was incubated with 1:12000 anti-rabbit IgG, HRP-linked Antibody (Cell Signaling Technology, 7074S) in 1×TBST with 5% (w/v) nonfat dry milk for 1 h at room temperature. After washing with 1×TBST for 10 min three times, monomeric and oligomerized RNase L protein was detected by using SuperSignal West Pico Chemiluminescent Substrate (Pierce Biotechnology). ImageJ software was used for quantification.

[4] = Quantitation of 1 and 2 in mouse plasma and tissue; type: in vivo; conditions: male, C57BL/6, mouse, lung, ip, 56 mg/kg; intraperitoneal injection; read-out: drug exposure in the lung
Experimental: Quantitation of 1 and 2 in mouse plasma and tissue. Male C57BL/6 mice (n=3 per dose; 5-7 weeks) were intraperitoneally (i.p.) injected with 1 (24, 49 or 81 mg/kg) or 2 (17, 34 or 56 mg/kg) in a formulation of DMSO/Tween-80/H2O (10/10/80). After 48 h, mice were euthanized, and blood, lung and kidney were collected. Tissues were immediately frozen. Blood was centrifuged to generate plasma and immediately frozen. On the day of analysis, tissues were homogenized, mixed with 5-times volume of acetonitrile, and filtered. Drug levels were determined by mass spectrometry using an ABSciex 5500 mass spectrometer using multiple reaction monitoring.

RNase L, sequence (Q05823 whole entry, species assumed): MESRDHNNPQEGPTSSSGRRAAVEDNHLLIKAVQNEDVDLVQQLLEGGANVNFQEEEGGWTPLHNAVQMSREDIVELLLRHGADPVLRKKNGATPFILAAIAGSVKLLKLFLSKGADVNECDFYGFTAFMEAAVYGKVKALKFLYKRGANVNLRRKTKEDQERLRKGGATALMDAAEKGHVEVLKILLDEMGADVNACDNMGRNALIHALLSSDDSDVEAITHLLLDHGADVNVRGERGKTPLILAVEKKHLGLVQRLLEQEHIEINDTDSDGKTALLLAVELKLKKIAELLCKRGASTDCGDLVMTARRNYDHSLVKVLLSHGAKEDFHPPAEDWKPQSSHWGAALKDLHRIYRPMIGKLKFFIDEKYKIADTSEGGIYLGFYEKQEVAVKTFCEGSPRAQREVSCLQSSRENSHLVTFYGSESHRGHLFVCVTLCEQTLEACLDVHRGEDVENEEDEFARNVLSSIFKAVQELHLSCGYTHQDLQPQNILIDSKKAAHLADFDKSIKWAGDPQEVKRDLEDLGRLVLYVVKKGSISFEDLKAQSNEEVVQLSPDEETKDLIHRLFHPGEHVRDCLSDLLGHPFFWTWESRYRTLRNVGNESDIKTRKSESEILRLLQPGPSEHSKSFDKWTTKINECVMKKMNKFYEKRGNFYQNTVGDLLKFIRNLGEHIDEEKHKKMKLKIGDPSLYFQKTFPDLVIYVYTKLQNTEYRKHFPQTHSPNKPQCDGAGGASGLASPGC

| SMILES | Kd [1] | inhibition of Dicer processing of mutant pre-miR-21 lacking the 1 binding site (pre-miR-21 mutant) | number of binding RNA motifs ([2]; Zobs>8) | Fitness score of A bulge (5'GAC/3'C_G) in the Dicer processing site of pre-miR-21 ([2]; normalized to most significant motif = 100) | selectivity among all miRNAs [3] | RNase L oligomerization / dimerization (RNase L) | concentration at 48 h [4] |
| --- | --- | --- | --- | --- | --- | --- | --- |
| CN1CCN(c2ccc3nc(-c4c(N)c5c(F)cccc5[nH]c4=O)[nH]c3c2)CC1 [Compound 1, Dovitinib, reference compound] | 3000 nM | had no effect; also recorded: unable to inhibit | 256 | 85 | – | – | – |
| CCOC(=O)C1=C(Nc2ccccc2)S/C(=C\c2ccc(OCCOCCOCCOCCNC(=O)NCCN3CCN(c4ccc5[nH]c(-c6c(N)c7c(F)cccc7[nH]c6=O)nc5c4)CC3)c(O)c2)C1=O [Compound 2, Ribotac-Dovitinib] | – | – | – | – | more selective than 1; also recorded: greater selectivity | recruits and dimerizes; also recorded: oligomerized RNase L in a dose dependent manner | 1000 nM |
